Data set [1] relates to intracranial pressure in rats. Put plainly: Effect of i.v. injection of test compounds on intracranial pressure in rats. It counts as in vivo. As to conditions: for Change (%) in intra-cranial pressure: dose one mg/kg, i.v. infusion in 5 w/v % mannitol, anesthetized male SD-rats, value before administration = 100. How it is done: (Effect of i.v., injection of test compounds on intracranial pressure in rats)
Male SD-rats weighing 500 to 800 g (each group consisting of 5 rats) were anesthetized with urethane. A solution of a test compound in an aqueous 5 w/v % mannitol solution was infused via the femoral vein at a rate of 0.2 ml/kg/minute for 20 minutes (when the test compound was used in the form of free base, said solution was prepared by dissolving it in an aqueous 5 w/v % mannitol solution with the aid of 0.5 N hydrochloric acid). Intracranial pressure (i.e., cerebrospinal fluid pressure in the cisterna magna) was continuously monitored via a canula introduced in the cisterna magna. The canula was connected to a transducer, and recording were made on graph paper. The effect of the test compound on-the intracranial pressure was estimated in terms of the increase or decrease in intracranial pressure, which was calculated in accordance with the following formula: […]

Data set [2] relates to central nervous system in mice. The data set can be described thus: Anti-apomorphine activity (cage climbing) in mice. The data set is classed as in vivo. As to conditions: Mus musculus, ip, 0.5 h; i.p., male mice; apomorphine hydrochloride 2.5 mg/kg s.c. 30 minutes later; dose decreasing number of climbing mice by 50 %; read-out: Effect on central nervous system (ED50, mg/kg) Anti-apomorphine activity. How it is done: (§1) The effect of a test compound on central nervous system was examined by the following methods.
(3) Anti-apomorphine activity:
A solution or suspension of a test compound in water or an aqueous carboxymethylcellulose solution was administered intraperitoneally to male mice weighing 18 to 20 g (each group consisting of 5 mice). Thirty minutes after administration of the test compound, apomorphine hydrochloride (2.5 mg/kg) was administered subcutaneously to the mice, and the number of the mice which could climb a cage was examined. The 50 % effective dose (ED50) of the test compound was estimated in terms of a dose which is necessary to decrease the number of the medicated mice which could climb the cage by 50 % of the number of a control group (i.e., non-medicated mice) which could climb the cage.

The nature of data set [3]: Maximum tolerated dose, i.p. Details: species or system mice. As to conditions: mouse, in vivo, ip.
Data set [4] concerns central nervous system in mice. Put plainly: Effect on sodium hexobarbital-induced anesthesia in mice. It counts as in vivo. As to conditions: Mus musculus, ip, 0.5 h, male mice; sodium hexobarbital 100 mg/kg i.p. 30 minutes later; dose prolonging sleeping time twice that of control. How it is done:
as §1
(2) Effect on sodium hexobarbital-induced anesthesia:
A solution or suspension of a test compound in water or an aqueous carboxymethylcellulose solution was administered intraperitoneally to male mice weighing 18 to 20 g (each group consisting of 5 mice). Thirty minutes after intraperitoneal administration of the test compound, sodium hexobarbital (100 mg/kg) was administered intraperitoneally to the mice, and the sleeping time was measured as the interval between the loss and recovery of the righting reflex. The 50.% effective dose (ED50) of the test compound was estimated in terms of dose which is necessary to prolong the sleeping time of the medicated mice twice as long as that of a control group (i.e., non-medicated mice).

Data set [5] deals with central nervous system in mice. The data set can be described thus: Effect on spontaneous motor activity in mice. As to conditions: Mus musculus, ip, 0.5 h; i.p., male mice; activity measured 30 minutes after administration; dose decreasing activity by 50 % of control; read-out: Effect on central nervous system (ED50, mg/kg) spontaneous mortor activity. The data set is classed as in vivo. How it is done:
as §1
(1) Effect on spontaneous mortor activity:
A solution or suspension of a test compound in water or an aqueous carboxymethylcellulose solution was administered intraperitoneally to male mice weighing 18 to 20 g (each group consisting of 5 mice). Thirty minutes after administration of the test compound, the spontaneous mortor activity of the mice was measured with an animex activity meter for 5 minutes. The 50 % effective dose (ED50) of the test compound was estimated in terms of a dose which is necessary to decrease the mortor activity of the medicated mice by 50 % of that of a control group (i.e., non-medicated mice).

[6] abbreviates: 40 minutes after administration.
Setting [7] is: 60 minutes after administration.
[8] abbreviates: 120 minutes after administration.

As for `CC(=O)Nc1ccc(COCCCN2CCN(c3ccccc3)CC2)cc1` [1-(4-acetamidobenzyloxy)-3-(4-phenylpiperazino)-n-propane], the “decrease in the intracranial pressure” value in data set [1] (40 minutes after administration, dose 1 mg/kg, infused via the femoral vein of rats in 5 w/v % mannitol for 20 minutes) is reported as “about 23%”. In addition, the results for the “Change (%) in intra-cranial pressure” value in data set [1] (setting [6]), in data set [1] (setting [7]) and in data set [1] (setting [8]) were 77.0%, 83.1% and 97.9%, respectively.
Turning to `COc1cc(NC(C)=O)ccc1OCCCN1CCC(O)(c2ccc(Cl)cc2)CC1` [1-(4-acetamido-2-methoxyphenoxy)-3-[4-(4-chlorophenyl)-4-hydroxy-piperidino]-n-propane], the “Change (%) in intra-cranial pressure” value is 94.2% in data set [1] (setting [6]), 95.4% in data set [1] (setting [7]) and 90.7% in data set [1] (setting [8]).
For `COc1cc(NC(C)=O)ccc1COCCCN1CCN(c2ccccc2)CC1` [1-(4-acetamido-2-methoxybenzyloxy)-3-(4-phenylpiperazino)-n-propane], the ED50 in data set [2] came to 7 mg/kg; in data set [4], 10 mg/kg; in data set [5], 5 mg/kg. The MTD in data set [3] amounted to 100 mg/kg.
`COc1cc(NC(C)=O)ccc1OCC(C)CN1CCN(c2ccccc2)CC1` (centres unmarked) [1-(4-acetamido-2-methoxyphenoxy)-3-(4-phenylpiperazino)-2-methyl-n-propane]: the “Change (%) in intra-cranial pressure” value in data set [1] (setting [6]) is 66.4%; in data set [1] (setting [7]) it was 73.8%; in data set [1] (setting [8]), 83.8%.

The term MTD denotes the highest dose tested that stayed within the study's limit of toxicity. A higher MTD goes with a wide tolerated range.

For the origin of these results see patent publication EP0034752A1, “Phenoxyalkane derivative and processes for preparing same” (Tanabe Seiyaku Co., Ltd., priority 1980, dated 1981).
